Experimental findings from patent US20210322582A1, “RADIOACTIVE IMIDAZOTHIADIAZOLE DERIVATIVE COMPOUND” (Nihon Medi-Physics Co., Ltd., priority 2018, published 2021) are described below.

The structures appear in SMILES notation.

The subject of the data set is MDA-MB-231 tumor. Kind of data set: Biodistribution of [^111In]ITDA2 in MDA-MB-231 tumor cancer-bearing mouse. The format is in vivo. The conditions noted are these: MDA-MB-231 tumor mouse, 24 hours. The method, then:
HT-29 cells (5×10^6 cells/mouse) and MDA-MB-231 cells (1×10^7 cells/mouse) were subcutaneously inoculated into the left shoulders of 5-week old male BALB/c nude mice, respectively, and the mice were used when the tumor diameter reached 6 to 10 mm. A saline solution (100 μL) in which [^111In]ITDA2 (40 kBq) had been dissolved was administered to each of the HT-29 tumor or MDA-MB-231 tumor cancer-bearing mice (n=5) via the tail vein. The HT-29 tumor cancer-bearing mice were slaughtered after the lapse of 1, 4, 8, and 24 hours from the administration, the MDA-MB-231 tumor cancer-bearing mouse was slaughtered after the lapse of 24 hours from the administration, and the blood, spleen, pancreas, stomach, intestines, kidney, liver, heart, lungs, brain, tumor, and muscle were recovered from each of the mice. The weight of each organ was measured, and the amount of radioactivity in each organ was measured by using a gamma counter. The accumulation of radioactivity in each organ except for stomach was expressed by % injected dose/g organ obtained by dividing the ratio of the amount of radioactivity of each organ to the administered amount of radioactivity by the organ weight. The stomach was expressed by % injected dose.

Regarding `NS(=O)(=O)c1nn2cc(-c3ccc(NC(=O)CN4CCN(CC(=O)O)CCN(CC(=O)Nc5ccc(-c6cn7nc(S(N)(=O)=O)sc7n6)cc5)CCN(CC(=O)O)CC4)cc3)nc2s1.[111In+3]` [[^111In]ITDA2, [^111In]indium(III)2,2′-(4,10-bis(2-oxo-2-((4-(2-sulfamoylimidazo[2,1-b][1,3,4]thiadiazol-6-yl)phenyl)amino)ethyl)-1,4,7,10-tetraazacyclododecan-1,7-diyl) diacetic acid], the “Biokinetics: Blood” value is on record as 0.29 ± 0.04 % injected dose/g organ, the “Biokinetics: Brain” value is given as 0.34 ± 0.07 % injected dose/g organ, the “Biokinetics: Heart” value was 1.13 ± 0.19 % injected dose/g organ and the “Biokinetics: Intestines” value is 9.15 ± 1.04 % injected dose/g organ. Besides, the “Biokinetics: Kidney” value was 59.8 ± 4.04 % injected dose/g organ, the “Biokinetics: Liver” value is 2.77 ± 0.45 % injected dose/g organ, the “Biokinetics: Lungs” value was 1.70 ± 0.57 % injected dose/g organ and the “Biokinetics: Muscle” value is 0.64 ± 0.06 % injected dose/g organ. Also, the “Biokinetics: Pancreas” value was 3.37 ± 0.28 % injected dose/g organ, the “Biokinetics: Spleen” value was 0.27 ± 0.07 % injected dose/g organ, the “Biokinetics: Stomach” value is 8.43 ± 1.08 % injected dose and the “Biokinetics: Tumor” value stood at 1.56 ± 0.17 % injected dose/g organ. The compound also showed a Tumor/blood of 5.51 ± 0.78 and a Tumor/muscle of 2.46 ± 0.39.
